Experimental data as given in paper PMC12715762, “Discovery of VU6052254: A Novel, Potent M1 Positive Allosteric Modulator” (ACS Chemical Neuroscience, 2025).

Key:
[1] = result in words; cited from earlier work
Histamine H2 = Histamine H2 (Homo sapiens, UniProt P25021); test: Eurofins radioligand binding
[2] = test system: mouse native tissue layer V medial prefrontal cortex (mPFC); test: electrophysiology (fEPSP, LTD) in layer V medial prefrontal cortex; conditions: 10 μM
Description: Based on our previous experience, ,− , PAM 7 is expected to display robust pro-cognitive efficacy and maintain activity dependence of prefrontal cortical (PFC) function.

Adenosine A3 = Adenosine A3 (Homo sapiens, UniProt P0DMS8); test: Eurofins radioligand binding
[3] = human PK and dose predictions (geometric mean of six methods)
Description: The predicted dose for 7 ranged from 32 to 84 mg QD. Based on this analysis, PAM 7 was advanced to safety and ADME studies.

Sodium Channel, Site 2 = test: Eurofins radioligand binding; conditions: Site 2, Rat
Adrenergic α2A = target: T1, Adrenergic α2A (Homo sapiens, UniProt P08913); test: Eurofins radioligand binding
T1 construct: purchased Eurofins (contract screen, Study TW04-0011004)
T1 sequence (P08913 whole entry): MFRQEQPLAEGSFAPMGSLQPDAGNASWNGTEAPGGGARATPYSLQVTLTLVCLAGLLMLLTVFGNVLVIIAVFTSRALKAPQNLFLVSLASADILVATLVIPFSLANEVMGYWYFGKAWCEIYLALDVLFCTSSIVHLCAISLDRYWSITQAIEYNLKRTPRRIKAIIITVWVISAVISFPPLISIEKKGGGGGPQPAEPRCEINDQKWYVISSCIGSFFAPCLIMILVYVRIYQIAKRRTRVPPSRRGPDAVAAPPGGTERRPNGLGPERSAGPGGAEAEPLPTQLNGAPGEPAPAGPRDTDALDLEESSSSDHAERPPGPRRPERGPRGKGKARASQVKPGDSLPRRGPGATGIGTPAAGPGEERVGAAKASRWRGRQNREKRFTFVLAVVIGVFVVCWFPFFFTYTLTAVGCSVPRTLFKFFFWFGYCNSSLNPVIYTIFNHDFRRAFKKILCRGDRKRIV

[4] = target: Transporter, Dopamine (DAT) (Homo sapiens, UniProt Q01959); test: Eurofins radioligand binding
1A2 = test: CYP450 induction in human hepatocytes (three donors); format: cell-based; conditions: 10 μM, human hepatocytes from three donors
[5] = plasma protein binding, equilibrium dialysis (cyno); format: in vitro ADME; conditions: cynomolgus monkey, pH 7.4, cyno (c), read-out: fu,plasma
Description: Plasma protein binding and Brain homogenate binding: Determination of fraction unbound (f u) in plasma was conducted in vitro via equilibrium dialysis using HTDialysis (HTD) membrane plates. The top half of the plate was filled with 100 uL of Dubelco’s Phosphate Buffered Saline, pH 7.4 (DPBS). Compounds were diluted into plasma from each species (5 µM final concentration), which was aliquoted in triplicate to the ‘bottom half’ of the prepared HTD plate wells. The HTD plate was sealed and incubated for 6 hours at 37 °C. Following incubation, each well (both top and bottom halves) were transferred (20 µL) to the corresponding wells of a 96-shallow-well (V-bottom) plate. […]
The unbound fraction (f u) was calculated following the equation below, and mean values for each species were calculated from 3 replicates.
A similar approach was used to determine the degree of brain homogenate binding, which employed the same methodology and procedure with the following modifications: 1) a final compound concentration of 1 μM was used, 2) naïve rat brains were homogenized in DPBS (1:3 composition of brain: DPBS, w/w) using a Mini-Bead Beater™ machine in order to obtain brain homogenate, which was then treated in the same manner as the plasma samples in the previously described plasma protein binding assay. Fraction unbound for both plasma and brain samples was determined using Equation 4. […]

Muscarinic M1 = Muscarinic M1 (Homo sapiens, UniProt P11229); test: Eurofins radioligand binding
[6] = test system: GABAA, Flunitrazepam, Central; test: Eurofins radioligand binding; conditions: Rat
Adrenergic α1D = Adrenergic α1D (Homo sapiens, UniProt P25100); test: Eurofins radioligand binding
Adrenergic α1D, sequence (P25100 whole entry): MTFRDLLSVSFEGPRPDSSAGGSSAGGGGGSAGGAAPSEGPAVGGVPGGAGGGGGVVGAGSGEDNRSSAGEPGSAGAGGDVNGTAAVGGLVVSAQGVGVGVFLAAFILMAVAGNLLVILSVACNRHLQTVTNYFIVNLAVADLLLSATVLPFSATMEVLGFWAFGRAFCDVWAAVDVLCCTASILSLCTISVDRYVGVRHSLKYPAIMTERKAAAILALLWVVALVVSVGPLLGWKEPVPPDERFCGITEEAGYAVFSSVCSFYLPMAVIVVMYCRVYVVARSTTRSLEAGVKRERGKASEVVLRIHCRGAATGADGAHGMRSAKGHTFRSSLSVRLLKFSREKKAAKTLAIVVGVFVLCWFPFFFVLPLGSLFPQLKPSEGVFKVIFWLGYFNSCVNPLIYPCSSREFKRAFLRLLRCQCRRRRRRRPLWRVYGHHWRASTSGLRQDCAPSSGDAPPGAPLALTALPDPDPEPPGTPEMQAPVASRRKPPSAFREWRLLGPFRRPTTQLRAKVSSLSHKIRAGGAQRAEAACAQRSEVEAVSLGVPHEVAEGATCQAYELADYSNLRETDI

[7] = test system: Calcium Channel L-Type, Benzothiazepine; test: Eurofins radioligand binding; conditions: Rat
Opiate κ (OP2, KOP) = Opiate κ (OP2, KOP) (Homo sapiens, UniProt P41145); test: Eurofins radioligand binding
Opiate κ (OP2, KOP), sequence (P41145 whole entry): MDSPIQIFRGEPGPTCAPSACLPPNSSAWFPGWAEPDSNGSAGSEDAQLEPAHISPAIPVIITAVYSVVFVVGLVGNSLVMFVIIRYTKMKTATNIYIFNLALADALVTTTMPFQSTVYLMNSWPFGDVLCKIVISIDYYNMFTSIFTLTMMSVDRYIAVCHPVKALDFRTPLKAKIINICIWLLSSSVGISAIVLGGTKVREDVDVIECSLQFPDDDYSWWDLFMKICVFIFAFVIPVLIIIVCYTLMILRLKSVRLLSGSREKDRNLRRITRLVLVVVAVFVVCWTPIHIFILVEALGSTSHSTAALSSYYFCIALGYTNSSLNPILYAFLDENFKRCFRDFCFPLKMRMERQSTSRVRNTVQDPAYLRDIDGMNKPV

[8] = satellite IP PK study, brain exposure; format: in vivo; conditions: C57Bl6 mice, 30% captisol
Description: These effects were absent when performed in M1 KO mice, confirming that these AEs are in fact M1-mediated. […] Total brain drug levels correlate better with PD efficacy ,− , versus free drug levels in brain, as the arbitrarily selected EC20 value for the in vitro PAM EC50 potency determination likely underestimates endogenous ACh tone. Thus, there is a significant therapeutic index for PAM 7 from this assay, and robust target-mediated convulsions were not present. To assess peripheral cholinergic toxicity, a modified Irwin neurological battery was performed to score autonomic or somatosensory side effects (Figure ). […] Still, if the dose and exposure required for efficacy afforded the appropriate therapeutic window, then PAM 7 could still advance.

Dopamine D3 = Dopamine D3 (Homo sapiens, UniProt P35462); test: Eurofins radioligand binding
Dopamine D3, sequence (P35462 whole entry): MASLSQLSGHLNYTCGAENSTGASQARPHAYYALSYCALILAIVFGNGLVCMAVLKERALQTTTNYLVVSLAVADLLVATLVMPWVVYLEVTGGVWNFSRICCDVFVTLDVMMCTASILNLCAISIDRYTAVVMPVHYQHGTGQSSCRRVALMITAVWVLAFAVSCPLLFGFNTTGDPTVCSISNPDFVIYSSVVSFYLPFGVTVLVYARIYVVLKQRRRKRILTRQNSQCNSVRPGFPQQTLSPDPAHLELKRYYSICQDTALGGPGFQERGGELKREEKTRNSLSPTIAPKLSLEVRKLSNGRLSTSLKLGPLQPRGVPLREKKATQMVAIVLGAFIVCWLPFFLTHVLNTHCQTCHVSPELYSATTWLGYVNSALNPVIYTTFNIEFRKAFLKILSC

Adrenergic α1A = Adrenergic α1A (Homo sapiens, UniProt P35348); test: Eurofins radioligand binding
Adrenergic α1A, sequence (P35348 whole entry): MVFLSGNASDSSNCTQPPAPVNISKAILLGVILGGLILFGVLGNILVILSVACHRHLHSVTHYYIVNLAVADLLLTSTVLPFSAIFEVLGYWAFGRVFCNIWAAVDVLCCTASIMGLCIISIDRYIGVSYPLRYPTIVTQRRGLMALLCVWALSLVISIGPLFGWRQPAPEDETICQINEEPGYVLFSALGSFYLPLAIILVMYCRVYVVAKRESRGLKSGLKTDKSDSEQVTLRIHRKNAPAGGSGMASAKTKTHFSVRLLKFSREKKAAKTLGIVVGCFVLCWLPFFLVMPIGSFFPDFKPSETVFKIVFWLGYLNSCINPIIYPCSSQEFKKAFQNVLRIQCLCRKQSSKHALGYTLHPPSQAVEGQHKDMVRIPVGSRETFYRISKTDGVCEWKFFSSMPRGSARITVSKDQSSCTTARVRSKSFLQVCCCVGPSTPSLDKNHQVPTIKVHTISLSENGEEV

[9] = target: Leukotriene, Cysteinyl CysLT1 (Homo sapiens, UniProt Q9Y271); test: Eurofins radioligand binding
Leukotriene, Cysteinyl CysLT1, sequence (Q9Y271 whole entry): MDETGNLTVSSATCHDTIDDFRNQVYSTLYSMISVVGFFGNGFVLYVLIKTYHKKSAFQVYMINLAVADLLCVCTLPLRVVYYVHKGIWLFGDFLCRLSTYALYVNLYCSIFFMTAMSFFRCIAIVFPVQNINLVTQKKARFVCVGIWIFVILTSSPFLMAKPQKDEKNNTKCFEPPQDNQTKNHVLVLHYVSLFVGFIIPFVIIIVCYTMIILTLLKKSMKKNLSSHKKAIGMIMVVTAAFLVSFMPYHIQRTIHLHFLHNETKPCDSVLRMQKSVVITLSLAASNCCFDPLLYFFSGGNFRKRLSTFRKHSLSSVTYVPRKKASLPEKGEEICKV

GSH trapping = format: in vitro ADME; conditions: human microsomes; result in words
Serotonin (5-HT2B) = Serotonin (5-HT2B) (Homo sapiens, UniProt P41595); test: Eurofins radioligand binding
Serotonin (5-HT2B), sequence (P41595 whole entry): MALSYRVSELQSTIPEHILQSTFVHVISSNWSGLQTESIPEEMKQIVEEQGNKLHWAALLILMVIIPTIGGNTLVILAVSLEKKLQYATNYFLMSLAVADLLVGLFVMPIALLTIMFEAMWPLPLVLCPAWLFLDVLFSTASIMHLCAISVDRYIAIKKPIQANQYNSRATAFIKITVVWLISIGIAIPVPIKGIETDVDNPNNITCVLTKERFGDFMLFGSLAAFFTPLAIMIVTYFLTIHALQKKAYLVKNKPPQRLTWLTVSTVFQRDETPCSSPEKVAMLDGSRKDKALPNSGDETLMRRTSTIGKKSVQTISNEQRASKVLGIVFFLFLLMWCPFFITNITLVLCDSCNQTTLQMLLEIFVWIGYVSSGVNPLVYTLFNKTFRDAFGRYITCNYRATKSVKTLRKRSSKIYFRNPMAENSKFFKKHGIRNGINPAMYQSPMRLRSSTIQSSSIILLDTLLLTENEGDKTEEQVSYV

Estrogen ERα = Estrogen ERα (Homo sapiens, UniProt P03372); test: Eurofins radioligand binding
GABAB1A = GABAB1A (Homo sapiens, UniProt Q9UBS5); test: Eurofins radioligand binding
GABAB1A, sequence (Q9UBS5 15-961 limits assumed): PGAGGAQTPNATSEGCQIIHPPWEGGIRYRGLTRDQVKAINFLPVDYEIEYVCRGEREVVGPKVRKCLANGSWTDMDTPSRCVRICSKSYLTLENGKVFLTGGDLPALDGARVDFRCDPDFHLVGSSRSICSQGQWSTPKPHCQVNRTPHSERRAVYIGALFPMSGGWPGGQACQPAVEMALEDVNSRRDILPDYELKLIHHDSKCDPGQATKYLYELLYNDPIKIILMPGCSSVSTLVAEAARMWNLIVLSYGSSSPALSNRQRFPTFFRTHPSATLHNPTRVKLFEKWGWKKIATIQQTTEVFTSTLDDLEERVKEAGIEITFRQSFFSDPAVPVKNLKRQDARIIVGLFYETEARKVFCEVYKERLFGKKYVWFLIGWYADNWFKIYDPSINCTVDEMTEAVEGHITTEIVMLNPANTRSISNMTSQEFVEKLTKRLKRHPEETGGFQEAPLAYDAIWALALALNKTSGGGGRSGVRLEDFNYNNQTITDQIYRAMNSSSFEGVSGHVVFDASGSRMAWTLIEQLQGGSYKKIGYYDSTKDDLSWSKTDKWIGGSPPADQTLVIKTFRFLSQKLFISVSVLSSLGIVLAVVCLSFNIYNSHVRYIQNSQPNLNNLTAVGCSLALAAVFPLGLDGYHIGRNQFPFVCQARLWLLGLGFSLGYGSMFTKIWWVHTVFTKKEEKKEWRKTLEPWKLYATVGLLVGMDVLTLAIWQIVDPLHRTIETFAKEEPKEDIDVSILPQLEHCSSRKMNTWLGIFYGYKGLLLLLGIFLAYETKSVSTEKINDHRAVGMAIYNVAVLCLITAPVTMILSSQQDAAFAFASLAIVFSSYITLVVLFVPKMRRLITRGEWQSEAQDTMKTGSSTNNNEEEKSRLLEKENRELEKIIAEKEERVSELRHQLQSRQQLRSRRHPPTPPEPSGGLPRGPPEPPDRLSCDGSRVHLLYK
GABAB1A, sequence (O75899 42-941 partner): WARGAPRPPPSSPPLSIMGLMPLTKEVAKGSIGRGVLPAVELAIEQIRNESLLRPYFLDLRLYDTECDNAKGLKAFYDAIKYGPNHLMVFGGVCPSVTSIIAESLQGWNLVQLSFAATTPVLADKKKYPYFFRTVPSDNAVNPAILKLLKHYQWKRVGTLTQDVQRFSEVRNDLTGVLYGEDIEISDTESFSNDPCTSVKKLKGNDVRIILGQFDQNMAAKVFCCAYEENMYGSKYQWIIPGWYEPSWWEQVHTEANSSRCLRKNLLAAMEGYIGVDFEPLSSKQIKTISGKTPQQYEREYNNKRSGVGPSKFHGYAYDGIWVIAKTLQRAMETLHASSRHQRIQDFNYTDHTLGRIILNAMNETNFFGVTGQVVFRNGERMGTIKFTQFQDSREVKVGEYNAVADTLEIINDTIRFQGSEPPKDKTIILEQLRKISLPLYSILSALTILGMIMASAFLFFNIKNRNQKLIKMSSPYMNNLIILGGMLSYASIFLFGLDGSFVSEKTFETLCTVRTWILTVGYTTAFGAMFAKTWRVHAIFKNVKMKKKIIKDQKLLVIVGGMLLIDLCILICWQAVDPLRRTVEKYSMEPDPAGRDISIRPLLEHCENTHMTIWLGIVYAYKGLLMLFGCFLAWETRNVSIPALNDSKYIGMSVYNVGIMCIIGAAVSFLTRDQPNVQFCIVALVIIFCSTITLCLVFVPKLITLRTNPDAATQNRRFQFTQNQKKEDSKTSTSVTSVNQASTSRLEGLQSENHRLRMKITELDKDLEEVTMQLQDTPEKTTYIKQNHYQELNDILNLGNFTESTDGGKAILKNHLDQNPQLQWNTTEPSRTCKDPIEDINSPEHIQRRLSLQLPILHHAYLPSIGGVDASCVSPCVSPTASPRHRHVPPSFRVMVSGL

Cn1cc2c(-c3cc(F)c(CN4Cc5ncccc5C4=O)c(F)c3)cccc2n1 [compound 1, reference compound]
cholinergic toxicity in Phase I SAD trial [1]: without any observed cholinergic toxicity

Cn1cc2c(-c3cc(F)c(CN4Cc5ncccc5C4=O)c(F)c3)ccc(C(C)(C)O)c2n1 [compound 7]
inhibition at 10 µM (Histamine H2): 2%
PPR [2]: 112%
field excitatory postsynaptic potentials (fEPSPs), % baseline [2]: 86 % baseline
inhibition at 10 µM (Adenosine A3): 8%
predicted human dose ([3]; QD): 32 to 84 mg
predicted human CLp ([3]; geometric mean of six methods): 2.6 mL/min/kg
predicted human Vss ([3]; geometric mean of six methods): 1.16 L/kg
predicted human oral bioavailability ([3]; geometric mean of six methods): 79%
predicted human t1/2 ([3]; geometric mean of six methods): 5.1 h
% Inhibition at 10 µM (Sodium Channel, Site 2): 22%
IC50 (Adrenergic α2A): 3.2 µM
inhibition at 10 µM (Adrenergic α2A; Adrenergic α2A, Human): 75%
inhibition at 10 µM [4]: 7%
1A2 induction (1A2): 4.9%
fraction unbound at 6 h, 5 µM [5]: 0.06
inhibition at 10 µM (Muscarinic M1): 18%
% Inhibition at 10 µM [6]: 4%
inhibition at 10 µM (Adrenergic α1D): 11%
% Inhibition at 10 µM [7]: 80%
inhibition at 10 µM (Opiate κ (OP2, KOP)): 15%
total brain exposure ([8]; 56.6 mg/kg IP): 29.8 µM
total brain exposure ([8]; 100 mg/kg IP): 42.2 µM
inhibition at 10 µM (Dopamine D3): -10%
inhibition at 10 µM (Adrenergic α1A): 13%
inhibition at 10 µM [9]: 8%
GSH trapping (GSH trapping): no evidence of GSH trapping
inhibition at 10 µM (Serotonin (5-HT2B)): 20%
inhibition at 10 µM (Estrogen ERα): 12%
inhibition at 10 µM (GABAB1A): 7%
